Data reported in patent US20260232825A1, “LINKER-DRUG MOLECULE AND ANTIBODY DRUG CONJUGATE, PREPARATION METHOD THEREFOR AND USE THEREOF” (SHANGHAI ESCUGEN BIOTECHNOLOGY CO., LTD., priority 2023, published 2026).
Where two headings read alike, the source gives them in different places.

How the values were obtained:
[1] = test system: B16F10-hClaudin18.2 cells; experiment: Immunogenic cell death of B16F10-hClaudin18.2 cells (Calreticulin/PI FACS); type: cell-based; details: small molecular drug load 10 nM, 48 hours
Experimental: The B16F10-hClaudin18.2 cells were resuscitated and cultured in a medium of DMEM (Thermo, cat #: 10569044)^+10% FBS (Thermo, Cat #: 10099-141C)+0.5 μg/mL Puromycin to subject to adherent culture at 37° C. in 5% CO2 incubator. When the cell confluence was greater than 80%, the cells were passaged at a ratio of 1:10 to 1:20 every 3-4 days.
When the cells grew to a confluence of about 80%, the cells were digested by a digestive solution of recombinant enzyme (TrypLE™ Express Enzyme, Thermo, cat #: 12605028). Then the cells were resuspended with DMEM+10% FBS, and an appropriate volume was taken for counting. The cell density was adjusted to 1×10^4 cells/mL, and inoculated into 96-well cell plate at 100 μL/well to culture overnight at 37° C. in 5% CO2 incubator. The next day, the ADC drug was diluted with DMEM+10% FBS medium to a final concentration of 750 nM, the small molecule toxin Exatecan was diluted to a final concentration of 10 nM, and sample concentration of 0 was set as blank control. The diluted samples were respectively added to 96-well cell culture plate containing cells at 100 μL/well to incubate at 37° C. in 5% CO2 incubator for 48 hours. […]

[2] = test system: MC38-hClaudin18.2 cells; experiment: In vitro tumor cell killing activity, MC38-hClaudin18.2 cell line (AlamarBlue); type: cell-based, mouse
Experimental: 9D1 antibody-drug conjugates prepared in the previous Experimental Examples and Comparative Examples were used for performing in vitro killing test on MC38 cell lines stably expressing human Claudin18.2. MC38-hClaudin18.2 cells were inoculated into a 96-well cell culture plate at 3000 cells/well, adding gradient diluted 9D1 ADCs next day to culture for 48-72 hours. The fluorescence values of each experimental well were detected by AlamarBlue reagent (ThermoFisher, item number DAL1100), and the cell viability was calculated.
When the cell confluence was greater than 80%, the cells were passaged at a ratio of 1:10 to 1:20 every 3 days.
MC38-hClaudin18.2 cells were digested by a digestive solution of recombinant enzyme (TrypLE™ Express Enzyme). […] The cell density was adjusted to 3×10^4 cells/mL, inoculating into 96-well cell culture plate at 100 μL/well. The cells were cultured overnight at 37° C. in 5% C02 incubator. The next day, the test drug was diluted 10 times in a series with a total of 7-8 concentration points, simultaneously setting a blank control with a sample concentration of 0. The diluted sample was added to 96-well cell culture plate containing cells at 100 μL/well, then incubating at 37° C. in 5% CO2 incubator for 48-72 hours. 20 μL of AlamarBlue detection reagent was added to each well, incubating at 37° C. for 4-6 hours, the fluorescence signal intensity was detected on a multifunctional enzyme-linked immunosorbent assay (ELISA) instrument with an excitation wavelength of 560 nm and an emission wavelength of 590 nm.
The cell viability of the blank control was set to 100%, and the cell viability (%) of the experimental well was calculated by the following formula: […]
The detected average cell viability was takedn as the y-axis, a sigmoid dose response (Variable Slope) method (GraphPad Prism software, GraphPad Software, San Diego, California) was used for nonlinear regression to obtain the inhibitory effect curves of cell proliferation, and the corresponding IC50 values (half maximum inhibition concentration) were calculated. […]

[3] = test system: NUGC4-hClaudin18.2 cells; experiment: In vitro tumor cell killing activity, NUGC4-hClaudin18.2 cell line (CCK-8); type: cell-based; details: Homo sapiens, 120 h, read-out: IC50 values (nM)
Experimental: When the cell confluence was greater than 80%, the cells were passaged at a ratio of 1:3 to 1:10 every 3-4 days.
NUGC4-hClaudin18.2 cells were digested by a digestive solution of recombinant enzyme (TrypLE™ Express Enzyme). […] The cell density was adjusted to 3×10^4 cells/mL, inoculating into 96-well cell culture plate at 100 μL/well. The cells were cultured overnight at 37° C. in 5% CO2 incubator. The next day, 9D1 ADC and small molecular toxin were diluted 5 times in a series from 1000 nM (final concentration, 500 nM) with a total of 7-8 concentration points, simultaneously setting a negative control with a sample concentration of 0, and a blank control containing only medium without cells. The diluted sample was added to 96-well cell culture plate containing cells at 100 μL/well (two duplicated wells), then incubating at 37° C. in 5% CO2 incubator for 120 hours. 20 μL of CCK-8 detection reagent (Dongren Chemical, CAS #CK04) was added to each well, incubating at 37° C. for 3-4 hours. The OD values of each well in the ELISA plate were measured at a wavelength of 450 nm and a reference wavelength of 630 nm on a multifunctional enzyme-linked immunosorbent assay (ELISA) reader, for each well, OD value=0D450 nm−OD630 nm. The cell viability of the negative control was set to 100%, and the cell viability (%) of the experimental wells was calculated according to the following formula. […]

[4] = test system: HEK293-hClaudin18.2 cells; experiment: In vitro cell killing activity, HEK293-hClaudin18.2 cell line (AlamarBlue); type: cell-based
Experimental: HEK293-hClaudin18.2 cells were cultured in DMEM medium containing 10% FBS, supplemented with 250 μg/mL G418 to subject to adherent culture at 37° C. in 5% CO2 incubator. When the cell confluence was greater than 80%, the cells were passaged at a ratio of 1:20 to 1:40 every 3 days.
HEK293-hClaudin18.2 cells were digested by a digestive solution of recombinant enzyme (TrypLE™ Express Enzyme). After counting, an appropriate amount of cells were taken to resuspend with DMEM+10% FBS. The cell density was adjusted to 2×10^4 cells/mL, inoculating into 96-well cell culture plate at 100 μL/well. The cells were cultured overnight at 37° C. in 5% CO2 incubator. The next day, 9D1 ADC and small molecular toxin were diluted 10 times in a series from 1000 nM (final concentration, 500 nM) with a total of 7-8 concentration points, simultaneously setting a negative control with a sample concentration of 0, and a blank control containing only same volume (200 μL/well) of medium without cells. The diluted sample was added to 96-well cell culture plate containing cells at 100 μL/well (two duplicated wells), then incubating at 37° C. in 5% CO2 incubator for 72 hours. The cell viability was detected by the AlamarBlue detection method mentioned above, then processing data to calculate the IC50 values, and the results are shown in Table 5 below.

[5] = test system: MC38 hClaudin18.2 tumor (high expression of p-gp); experiment: Pharmacodynamics in p-gp mediated drug-resistant tumor bearing mouse model; type: in vivo; details: in words; ADC 10 mg/kg i.p. QW × 2, Tariquidar p.o. QD × 10
Experimental: Modeling and administration of tumor bearing mice: BALB/c Nude mice (female, 5-6 week old) were subcutaneously inoculated with MC38 hClaudin18.2 cells (1×10^6 cells in […]) on the ventral side. When the tumor volume increased to about 120 mm^3, the mice were randomly divided into groups and administered according to Table 10. The tumor and body weight were measured twice a week to calculate the tumor volumes (TV, mm^3) and plot the tumor growth curves. TV (mm^3)=(L×W^2)/2, wherein L represents tumor length, and W represents tumor width. GraphPad Prism software (GraphPad Software, San Diego, California) and XY mode were selected to plot the tumor growth curves and weight curves of mice, and the tumor volumes and weights were represented as mean±standard error.

`CC[C@@]1(O)C(=O)OCc2c1cc1n(c2=O)Cc2c-1nc1cc(F)c(C)c3c1c2[C@@H](NC(=O)CO)CC3` [Dxd] was tested, and the “ratio of Calreticulin(+)/PI(−) cells” value [1] was “significantly raised”.

`CC[C@@]1(O)C(=O)OCc2c1cc1n(c2=O)Cc2c-1nc1cc(F)c(C)c3c1c2[C@@H](N)CC3` [Exatecan] was tested, and the IC50 ([2]; Mus musculus, read-out: IC50 values (nM), MC38-hClaudin18.2 cells, 48-72 hours, AlamarBlue) was 4.1 nM, the IC50 ([2]; read-out: IC50 values, MC38-hClaudin18.2 cells, 48-72 hours, AlamarBlue) was 4.1 nM and the IC50 [3] was 2.01 nM. For the same molecule, the IC50 ([4]; 72 h, read-out: IC50 values (nM), HEK293-hClaudin18.2 cells, 72 hours, AlamarBlue) was 0.51 nM, the IC50 ([4]; read-out: IC50 values, HEK293-hClaudin18.2 cells, 72 hours, AlamarBlue) was 0.508 nM and the “ratio of Calreticulin(+)/PI(−) cells” value [1] was “significantly raised”.

In the case of `COc1cc2c(cc1OC)CN(CCc1ccc(NC(=O)c3cc(OC)c(OC)cc3NC(=O)c3cnc4ccccc4c3)cc1)CC2` [Tariquidar], the tumor inhibitory effect [5] is reported as “has no tumor inhibitory effect”.
